# Read-outs that look alike come from different tables or passages of the source.
# Legend:
# Type in all cases: cell-based
# [1] = tested on: Influenza Virus A H1N1, California July 2009; assay: In vitro virucidal assay, endpoint dilution CCID50 on MDCK cells; conditions: 95% ethanol control, 37° C.
# Procedure: Formulation B containing 0.6% PVP-I (for nasal spray) was tested for virucidal assay against influenza virus (Influenza Virus A H1N1, California July 2009). Formulation B was diluted with artificial nasal fluid as follows: neat, 1/1.8, 1/3.2 and 1/10. Other controls were 95% ethanol and MEM solution. Virus solution was added to test dilution at 1/10 and incubated for 30 seconds and 2 minutes at 37° C. And thus, the final concentration of solution tested were 90%, 50%, 28% and 9%. Following the incubation period, samples were neutralized by a 1/10 dilution in test media containing 10% FBS. The surviving virus in each tube was determined using a standard endpoint dilution CCID50 assay as follows. Samples were diluted 1/10 in series and each dilution added to 4 replicate columns of 96-well plates seeded with 80-100% confluent MDCK cells. Plates were incubated for 6 days at 37° C. with 5% CO2 then scored for the presence or absence of cytopathic effect (CPE). Virus titer (CCID50) was calculated using the Reed-Muench method (1948). The log reduction value (LRV) of the compound compared to the virus control was calculated. The entire procedure was repeated in triplicate. Toxicity controls were performed to show whether test compound toxicity would confound results by killing the cells in the absence of virus.
# SARS-CoV-2 = conditions: 45% ethanol control, 37° C.; for Viral Titer: mean of 3 ± SD
# Human Adenovirus Type 5 = assay: In-vitro anti-viral (virucidal) assay, cytopathic effect study with human AE549 cells; conditions: 70% ethanol
# Procedure: To determine whether contact with aqueous formulation of this invention containing 0.6% PVP-I inactivates (“kills”) virus, the aqueous formulation was mixed directly with virus for 30±5 minutes, then neutralized and the surviving virus was quantified.
structure (smiles),measurement,setting,value
CCO [Ethanol],LRV (log reduction value),[1]; contact time 0.5 min,1.5
same,Viral Titer,[1]; contact time 0.5 min,4.5 Log10 CCID50 of virus per mL
same,LRV (log reduction value),[1]; contact time 2 min,4.4
same,Viral Titer,[1]; contact time 2 min,2.3 Log10 CCID50 of virus per mL
same,LRV (log reduction value),SARS-CoV-2; contact time 0.5 min,3.5
same,Viral Titer,SARS-CoV-2; contact time 0.5 min,<1.7 ± 0.0 Log10 CCID50 of virus per mL
same,LRV (log reduction value),SARS-CoV-2; contact time 2 min,1.9
same,Viral Titer,SARS-CoV-2; contact time 2 min,<1.7 ± 0.0 Log10 CCID50 of virus per mL
same,LRV (log reduction value),SARS-CoV-2; contact time 10 min,3.3
same,Viral Titer,SARS-CoV-2; contact time 10 min,<0.67 ± 0.0 Log10 CCID50 of virus per mL
same,virucidal effect of ethanol control,Human Adenovirus Type 5,fully effective

# Source: patent publication US20230105599A1, “Aqueous Formulations Containing Povidone Iodine for Effective Treatment and Prevention of Virus Infections” (priority 2020, published 2023)
